# Reference: ChEMBL document CHEMBL1138287, “Stereoselective synthesis of a novel 2-aza-7-oxabicyclo[3.3.0]octane as neurokinin-1 receptor antagonist” (Bioorg Med Chem Lett, 2007)
# Legend:
# [1] = biological target: Voltage-gated L-type calcium channel (Rattus norvegicus, UniProt P22002+Q02485+P27732); experiment: Displacement of [3H]desmethoxyverapamil from verapamil binding site of L type calcium channel in rat heart
# [2] = biological target: Substance-P receptor (Homo sapiens, UniProt P25103); experiment: Displacement of [3H]substance P from NK1 human receptor expressed in IM9 cells; type: cell-based, IM-9
# [3] = test system: Cavia porcellus; experiment: Antagonist activity in guinea pig ureter assessed as inhibition of capsaicin-induced plasma extravasation at 10 mg/kg, po; type: functional
# [4] = test system: Cavia porcellus; experiment: Antagonist activity in guinea pig ureter assessed as inhibition of capsaicin-induced plasma extravasation at 1 mg/kg, po; type: functional
# [5] = species on record: Cavia porcellus; experiment: Antagonist activity in guinea pig ureter assessed as inhibition of capsaicin-induced plasma extravasation; type: functional
# Substance-P receptor, sequence (P25103 whole entry): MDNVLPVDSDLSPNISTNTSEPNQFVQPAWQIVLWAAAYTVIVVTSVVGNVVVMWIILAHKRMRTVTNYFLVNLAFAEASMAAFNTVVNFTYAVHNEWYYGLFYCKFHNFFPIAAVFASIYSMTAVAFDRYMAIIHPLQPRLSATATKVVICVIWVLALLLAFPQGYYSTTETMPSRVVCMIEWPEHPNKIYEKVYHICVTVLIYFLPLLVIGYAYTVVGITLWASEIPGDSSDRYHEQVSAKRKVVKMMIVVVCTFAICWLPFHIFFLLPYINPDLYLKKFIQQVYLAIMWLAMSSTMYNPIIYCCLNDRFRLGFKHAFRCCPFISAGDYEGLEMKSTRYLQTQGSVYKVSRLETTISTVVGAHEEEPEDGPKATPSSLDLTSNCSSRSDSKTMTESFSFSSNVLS
smiles,measurement,setting,value
COc1ccccc1CN[C@H]1[C@@H]2CCC[C@@H]2N[C@H]1c1ccccc1 (racemic),IC50,[1],> 1000 nM
same,IC50,[2],3.4 nM
COc1ccc(OC(F)(F)F)cc1CN[C@H]1[C@@H]2COC[C@@H]2N[C@H]1c1ccccc1 (racemic),IC50,[1],> 1000 nM
same,inhibition in vivo at 10 mg/kg,[3],94%
same,inhibition in vivo at 1 mg/kg,[4],10%
same,IC50,[2],0.22 nM
same,ED50,[5],1 mg/kg
